IC50 and AC50 data for seven molecules are collected here from ChEMBL document CHEMBL1201862, “PubChem BioAssay data set” (2004).

In experiment [1] the target is T1, Mannose-6-phosphate isomerase (Homo sapiens, UniProt P34949).
T1 sequence (P34949 whole entry): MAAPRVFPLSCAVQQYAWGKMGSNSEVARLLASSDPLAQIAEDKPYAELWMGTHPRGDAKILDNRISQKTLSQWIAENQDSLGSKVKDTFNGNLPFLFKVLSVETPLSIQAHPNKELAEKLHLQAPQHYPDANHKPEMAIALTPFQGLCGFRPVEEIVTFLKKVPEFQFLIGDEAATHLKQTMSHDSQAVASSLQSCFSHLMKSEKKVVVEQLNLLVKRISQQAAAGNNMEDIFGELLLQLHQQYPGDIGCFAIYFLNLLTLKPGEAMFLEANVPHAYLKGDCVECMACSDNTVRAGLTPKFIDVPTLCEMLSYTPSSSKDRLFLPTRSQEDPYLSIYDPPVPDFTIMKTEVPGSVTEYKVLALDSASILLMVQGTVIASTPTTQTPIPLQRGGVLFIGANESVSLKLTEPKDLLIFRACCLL
In words: inhibitors of human PMI, primary screen, biochemical, fluorescence intensity, coupled assay (AID 1209).

Experiment [2] in a line: inhibitors of HIV Env-driven cell fusion, dose response, cherry-pick (AID 652057). The experiment is classed as functional, cell-based.
Experiment [3] in a line: inhibitors of clade B AD8 Env fusion, dose response, cell-based, cherry-pick (AID 652062).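 Further: luciferase signal from cell-cell fusion driven by HIV-1 clade B AD8 Env; potency is for inhibitors of fusion seen as a drop in luminescence.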 The class given is functional.
Experiment [4] in a line: ZM109 Env clade C HIV-1 fusion inhibitors, dose response, HeLa effector, CEM target cells, luciferase, cherry-pick (AID 652058). The experiment is classed as functional, cell-based.
For experiment [5], the target named is T2, Orexin/Hypocretin receptor type 1 (Homo sapiens, UniProt O43613).
T2 sequence (O43613 whole entry): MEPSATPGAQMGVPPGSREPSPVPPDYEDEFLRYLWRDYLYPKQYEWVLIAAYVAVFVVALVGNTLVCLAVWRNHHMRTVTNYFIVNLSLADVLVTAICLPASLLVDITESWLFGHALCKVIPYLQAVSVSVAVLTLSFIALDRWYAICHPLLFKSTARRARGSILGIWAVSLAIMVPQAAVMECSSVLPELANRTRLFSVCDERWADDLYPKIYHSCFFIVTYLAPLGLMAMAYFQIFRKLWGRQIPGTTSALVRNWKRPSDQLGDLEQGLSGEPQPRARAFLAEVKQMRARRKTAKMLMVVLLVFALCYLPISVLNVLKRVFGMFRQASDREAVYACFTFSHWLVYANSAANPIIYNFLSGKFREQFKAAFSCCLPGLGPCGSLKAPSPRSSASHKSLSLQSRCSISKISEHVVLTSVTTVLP
The experiment can be described thus: Fluorescence-based cell-based high throughput dose response assay for antagonists of the orexin 1 receptor (OX1R; HCRTR1). [Related pubchem assays (depositor defined):AID434989, AID435008, AID463079, AID485270, AID492963, AID492964, AID492965, AID493232, AID504717, AID504718]. The class given is functional.

The test system of experiment [6] is CHO-K1. In words: Counterscreen for antagonists of the orexin 1 receptor (OX1R; HCRTR1): Homogeneous time resolved fluorescence (HTRF)-based cell-based dose response assay to identify antagonists of the parental CHO-K1 cell line. [Related pubchem assays (depositor defined):AID434989, AID435008, AID463079, AID485270, AID492963, AID492964, AID492965, AID493232, AID504699, AID504701]. The class given is functional. The note with it: Cricetulus griseus.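 Further: potency for inhibition of ATP-stimulated IP1 production as antagonists.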

Experiment [7] deals with T3, Orexin receptor type 2 (Homo sapiens, UniProt O43614).
T3 sequence (O43614 whole entry): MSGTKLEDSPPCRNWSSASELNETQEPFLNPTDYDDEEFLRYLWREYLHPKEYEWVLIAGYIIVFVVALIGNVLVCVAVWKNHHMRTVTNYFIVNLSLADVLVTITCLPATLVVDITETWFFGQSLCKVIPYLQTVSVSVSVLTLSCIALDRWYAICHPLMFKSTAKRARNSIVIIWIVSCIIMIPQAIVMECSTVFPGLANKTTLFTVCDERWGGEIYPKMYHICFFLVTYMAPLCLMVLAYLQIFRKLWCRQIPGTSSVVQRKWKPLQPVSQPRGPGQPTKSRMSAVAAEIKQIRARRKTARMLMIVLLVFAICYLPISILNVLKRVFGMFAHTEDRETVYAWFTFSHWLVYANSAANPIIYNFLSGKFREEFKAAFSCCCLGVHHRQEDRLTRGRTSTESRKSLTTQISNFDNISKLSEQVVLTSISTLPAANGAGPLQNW
The experiment can be described thus: Counterscreen assay for antagonists of the orexin 1 receptor (OX1R; HCRTR1): Fluorescence-based cell-based dose response assay for antagonists of the orexin 2 receptor (OX2R; HCRTR2), run by assay provider. The experiment is classed as functional.

Experiment [8] concerns the target T2, Orexin/Hypocretin receptor type 1. In words: Homogeneous Time Resolved Fluorescence (HTRF)-based cell-based high throughput dose response assay for antagonists of the orexin 1 receptor (OX1R; HCRTR1). [Related pubchem assays (depositor defined):AID434989, AID435008, AID463079, AID485270, AID492963, AID492964, AID492965, AID493232, AID504717, AID504718]. The experiment is classed as functional.

The target of experiment [9] is T3, Orexin receptor type 2. The experiment can be described thus: Counterscreen assay for antagonists of the orexin 1 receptor (OX1R; HCRTR1): Homogeneous Time Resolved Fluorescence (HTRF)-based cell-based dose response assay for antagonists of the orexin 2 receptor (OX2R; HCRTR2), run by assay provider. The class given is functional.
A short description of experiment [10]: Counterscreen for antagonists of the orexin 1 receptor (OX1R; HCRTR1): Fluorescence-based cell-based high throughput dose response assay to identify antagonists of the parental CHO cell line. [Related pubchem assays (depositor defined):AID434989, AID435008, AID463079, AID485270, AID492963, AID492964, AID492965, AID493232, AID504699, AID504701]. The experiment is classed as functional.

Experiment [11] concerns the target T1, Mannose-6-phosphate isomerase. In words: human PMI inhibitors, high substrate, primary screen, biochemical, fluorescence intensity, high mannose 6-phosphate (AID 1220).
Experiment [12] can be described thus: Luminescence Cell-Based Dose Retest to Confirm Inhibitors of Cancer Stem Cells. [Related pubchem assays (depositor defined):AID2717, AID2721]. The experiment is classed as functional. The note with it: Homo sapiens.
Experiment [13] deals with T4, Caspase-6 (Homo sapiens, UniProt P55212).
T4 sequence (P55212 whole entry): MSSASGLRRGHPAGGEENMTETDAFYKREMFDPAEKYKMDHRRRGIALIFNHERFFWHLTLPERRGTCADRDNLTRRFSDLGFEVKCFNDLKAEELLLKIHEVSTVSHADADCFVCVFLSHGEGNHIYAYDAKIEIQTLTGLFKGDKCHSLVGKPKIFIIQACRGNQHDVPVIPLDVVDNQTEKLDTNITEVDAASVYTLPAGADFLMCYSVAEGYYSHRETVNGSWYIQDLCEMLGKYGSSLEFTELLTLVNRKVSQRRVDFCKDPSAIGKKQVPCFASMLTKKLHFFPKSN
The experiment can be described thus: human caspase-6 inhibitors, dose response, biochemical, VEID-R110 fluorescence, cherry-pick (AID 720632).

Experiment [14] in a line: P. falciparum Dd2 growth inhibitors, dose response, SYBR Green, cherry-picked samples (AID 1159567). The experiment is classed as functional, cell-based.
Experiment [15] in a line: P. falciparum 3D7-ScDHODH growth inhibitors, dose response, SYBR Green, dry powder samples (AID 1159570).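 Further: parasite growth measured after 72 hours of compound exposure.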 The class given is functional, cell-based.
The nature of experiment [16]: HepG2 cell cytotoxicity, dose response, cytotoxicity control, plate reader, dry powder samples (AID 1159569).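 Further: inhibitor potency with signal falling toward the positive control level.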 The experiment is classed as functional, cell-based.
A short description of experiment [17]: P. falciparum Dd2 growth inhibitors, dose response, SYBR Green, dry powder samples (AID 1159566).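 Further: potency for growth inhibition with lower SYBR green DNA signal.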 The class given is functional, cell-based.
The nature of experiment [18]: P. falciparum ATP4 D1247Y mutant growth inhibitors, dose response, NITD609-resistant line, SYBR Green, dry powder (AID 1159571).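 Further: parasites synchronized at ring stage by sorbitol before testing.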 The class given is functional, cell-based.
Experiment [19] can be described thus: human group III sPLA2 inhibitors, dose response, biochemical, QFRET, IC50 (AID 743457).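 Further: green fluorescence rise as the enzyme cleaves BODIPY PC-A2 in liposomes; potency for inhibition of the enzyme.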

Calls of active or inactive are those of the source.

As for `O=C(NCCO)c1cc2ccccc2cc1O`, the IC50 in experiment [1] was > 50 µM (not active).
With `C[C@H](CO)N1C[C@H](C)[C@H](CN(C)S(=O)(=O)c2ccc(Cl)cc2)Oc2ccc(NC(=O)Nc3ccc4c(c3)OCO4)cc2C1=O`, the AC50 in experiment [2] was 2.11 µM (active); in experiment [3], 13.7 µM (active); in experiment [4], 6.18 µM (active).
As to `CCc1c(C)sc(N=C(S)Nc2nc(C)cc(C)n2)c1C(=O)OC`, the IC50 in experiment [5] is 4.29 µM (active); in experiment [6], > 66.2 µM (inactive); in experiment [7], 15 µM (inactive); in experiment [1], > 50 µM (not active); in experiment [8], 2.23 µM (active); in experiment [9] it was > 50 µM (inactive). In addition, the IC50 in [10] is > 49.8 µM (inactive).
As for `CCOC(=O)N1CCN(CCC(=O)c2ccc(Cl)cc2)CC1`, the IC50 in experiment [11] was > 50 µM (not active). For the same molecule, the AC50 in [12] was 12 µM (active).
With `O=C(CCc1nc(O)c2c3c(sc2n1)CCCC3)NCC(=O)Nc1ccccc1Br`, the AC50 in experiment [13] was 26.8 µM (active).
As to `Cc1ccc(S(=O)(=O)N2C[C@@H]3N[C@H](C2)[C@H]3c2ccc(-c3ccncc3)cc2)cc1`, the AC50 was 1.37 µM (active) in experiment [14]; 1.26 µM (active) in experiment [15]; 82.3 µM (active) in experiment [16]; 1.03 µM (active) in experiment [17]; 1.67 µM (active) in [18].
On to `Cc1c(Cl)c(C(=O)NN=C(S)Nc2ccc(F)cc2)nn1C`, for which the IC50 in experiment [19] was > 122 µM (inactive).
